Biological target: T1, FXR ligand binding domain (GST-FXR LBD fusion protein) (Homo sapiens, UniProt Q96RI1)
T1 construct: made in house; host or cells: E. coli BL21(pLysS)
T1 sequence (Q96RI1 193-472 isoform Q96RI1-2 limits assumed): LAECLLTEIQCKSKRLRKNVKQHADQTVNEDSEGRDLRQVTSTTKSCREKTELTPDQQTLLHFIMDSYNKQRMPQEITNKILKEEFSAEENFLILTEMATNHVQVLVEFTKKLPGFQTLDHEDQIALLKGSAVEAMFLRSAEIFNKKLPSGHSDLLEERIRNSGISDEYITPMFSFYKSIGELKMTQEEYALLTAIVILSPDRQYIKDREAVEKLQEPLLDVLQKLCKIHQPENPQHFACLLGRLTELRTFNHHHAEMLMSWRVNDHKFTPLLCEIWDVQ
Assay: Radioligand binding assay (scintillation proximity, radioligand displacement)
Details: GST-FXR LBD on SPA beads, 20 nM radioligand, test compound 6×10^−9 M to 2.5×10^−5 M
Method: The following tests were carried out in order to determine the activity of the compounds of formula (I). Background information on the binding assay can be found in: Nichols J S et al. “Development of a scintillation proximity assay for peroxisome proliferator-activated receptor gamma ligand binding domain”, (1998) Anal. Biochem. 257: 112-119.
Bacterial and mammalian expression vectors were constructed to produce glutathione-s-transferase (GST) and Gal4 DNA binding domain (GAL) proteins fused to the ligand binding domain (LBD) of human FXR (aa 193-473). To accomplish this, the portions of the sequences encoding the FXR LBD were amplified by polymerase chain reaction (PCR) from a full-length clone by PCR and then subcloned into the plasmid vectors. The final clone was verified by DNA sequence analysis.
The induction, expression, and subsequent purification of GST-LBD fusion protein was performed in E. coli strain BL21(pLysS) cells by standard methods (Current Protocols in Molecular Biology, Wiley Press, ed. Ausubel et al.).
Radioligand Binding Assay
Binding of test substances to the FXR ligand binding domain was assessed in a radioligand displacement assay. The assay was performed in a buffer consisting of 50 mM Hepes, pH 7.4, 10 mM NaCl, 5 mM MgCl2, 0.01% CHAPS. For each reaction well in a 96-well plate, 40 nM of GST-FXR LBD fusion protein was bound to 10 μg glutathione ytrium silicate SPA beads (PharmaciaAmersham) in a final volume of 50 μl by shaking. A radioligand (e.g., 20 nM of 2,N-dicyclohexyl-2-[2-(2,4 dimethoxy-phenyl)-benzoimidazol-1-yl]-acetamide) and test compounds were added, and scintillation proximity counting was performed. All binding assays were performed in 96-well plates and the amount of bound ligand was measured on a Packard TopCount using OptiPlates (Packard). Dose response curves were performed within a range of test compound concentrations from 6×10^−9 M to 2.5×10^−5 M and IC50 values were calculated.

Question: Which IC50 does the source give for “6-{(R)-2-Cyclohexyl-2-[5,6-difluoro-2-((S)-methoxy-phenyl-methyl)-benzoimidazol-1-yl]-acetylamino}-nicotinic acid [Example 10A]” here?
Answer: Its IC50 is 200 nM.

Question: “6-{(S)-2-Cyclohexyl-2-[5,6-difluoro-2-((S)-methoxy-phenyl-methyl)-benzoimidazol-1-yl]-acetylamino}-nicotinic acid [Example 10B]” was tested. Which IC50 did it give?
Answer: Its IC50 is 100 nM.

Question: How did the IC50 turn out when `CO[C@@H](c1ccccc1)c1nc2cc(F)c(F)cc2n1[C@@H](C(=O)Nc1ccc(C(=O)O)cc1)C1CCCCC1` (single isomer, unassigned) [Example 1A] was run?
Answer: Its IC50 is 1900 nM.

Question: `CO[C@@H](c1ccccc1)c1nc2cc(F)c(F)cc2n1[C@H](C(=O)Nc1ccc(C(=O)O)cc1)C1CCCCC1` (single isomer, unassigned) [Example 1B] was tested. Which IC50 did it give?
Answer: Its IC50 is 1000 nM.

Question: Which IC50 does the source give for `CO[C@H](c1ccccc1)c1nc2cc(F)c(F)cc2n1[C@@H](C(=O)Nc1ccc(C(=O)O)cc1)C1CCCCC1` (single isomer, unassigned) [Example 2A] here?
Answer: Its IC50 is 1600 nM.

Question: How did the IC50 turn out when `CO[C@H](c1ccccc1)c1nc2cc(F)c(F)cc2n1[C@H](C(=O)Nc1ccc(C(=O)O)cc1)C1CCCCC1` (single isomer, unassigned) [Example 2B] was run?
Answer: The IC50 was 300 nM.

Question: For `CO[C@@H](c1ccccc1)c1nc2cc(F)c(F)cc2n1[C@@H](C(=O)Nc1ccc(C(=O)O)cc1F)C1CCCCC1` (single isomer, unassigned) [Example 3A], which IC50 is on record?
Answer: The IC50 was 500 nM.

Question: Which IC50 does the source give for `CO[C@@H](c1ccccc1)c1nc2cc(F)c(F)cc2n1[C@H](C(=O)Nc1ccc(C(=O)O)cc1F)C1CCCCC1` (single isomer, unassigned) [Example 3B] here?
Answer: Its IC50 is 400 nM.

Question: With `CO[C@H](c1ccccc1)c1nc2cc(F)c(F)cc2n1[C@@H](C(=O)Nc1ccc(C(=O)O)cc1F)C1CCCCC1` (single isomer, unassigned) [Example 4A] as the compound, how does the IC50 read?
Answer: Its IC50 is 500 nM.

Question: For `CO[C@H](c1ccccc1)c1nc2cc(F)c(F)cc2n1[C@H](C(=O)Nc1ccc(C(=O)O)cc1F)C1CCCCC1` (single isomer, unassigned) [Example 4B], which IC50 is on record?
Answer: The IC50 was 30 nM.

Question: `CO[C@@H](c1ccccc1)c1nc2cc(F)c(F)cc2n1[C@@H](C(=O)Nc1ccc(C(=O)O)cc1C)C1CCCCC1` (single isomer, unassigned) [Example 5A] was tested. Which IC50 did it give?
Answer: Its IC50 is 300 nM.

Question: How did the IC50 turn out when `CO[C@@H](c1ccccc1)c1nc2cc(F)c(F)cc2n1[C@H](C(=O)Nc1ccc(C(=O)O)cc1C)C1CCCCC1` (single isomer, unassigned) [Example 5B] was run?
Answer: The IC50 was 1100 nM.

Question: For `CO[C@H](c1ccccc1)c1nc2cc(F)c(F)cc2n1[C@@H](C(=O)Nc1ccc(C(=O)O)cc1C)C1CCCCC1` (single isomer, unassigned) [Example 6A], which IC50 is on record?
Answer: Its IC50 is 5000 nM.

Question: With `CO[C@H](c1ccccc1)c1nc2cc(F)c(F)cc2n1[C@H](C(=O)Nc1ccc(C(=O)O)cc1C)C1CCCCC1` (single isomer, unassigned) [Example 6B] as the compound, how does the IC50 read?
Answer: Its IC50 is 60 nM.

Question: For `CO[C@@H](c1ccccc1)c1nc2cc(F)c(F)cc2n1[C@@H](C(=O)Nc1ccc(C(=O)O)cc1Cl)C1CCCCC1` (single isomer, unassigned) [Example 7A], which IC50 is on record?
Answer: The IC50 was 300 nM.

Question: Which IC50 does the source give for `CO[C@@H](c1ccccc1)c1nc2cc(F)c(F)cc2n1[C@H](C(=O)Nc1ccc(C(=O)O)cc1Cl)C1CCCCC1` (single isomer, unassigned) [Example 7B] here?
Answer: The IC50 was 20 nM.

Question: Which IC50 does the source give for `CO[C@H](c1ccccc1)c1nc2cc(F)c(F)cc2n1[C@@H](C(=O)Nc1ccc(C(=O)O)cc1Cl)C1CCCCC1` (single isomer, unassigned) [Example 8A] here?
Answer: The IC50 was 400 nM.

Question: Which IC50 does the source give for `CO[C@H](c1ccccc1)c1nc2cc(F)c(F)cc2n1[C@H](C(=O)Nc1ccc(C(=O)O)cc1Cl)C1CCCCC1` (single isomer, unassigned) [Example 8B] here?
Answer: The IC50 was 60 nM.

Question: How did the IC50 turn out when `CO[C@@H](c1ccccc1)c1nc2cc(F)c(F)cc2n1[C@@H](C(=O)Nc1ccc(C(=O)O)cn1)C1CCCCC1` (single isomer, unassigned) [Example 9A] was run?
Answer: The IC50 was 1700 nM.

Question: `CO[C@@H](c1ccccc1)c1nc2cc(F)c(F)cc2n1[C@H](C(=O)Nc1ccc(C(=O)O)cn1)C1CCCCC1` (single isomer, unassigned) [Example 9B] was tested. Which IC50 did it give?
Answer: The IC50 was 2600 nM.

Question: How did the IC50 turn out when `CO[C@H](c1ccccc1)c1nc2cc(F)ccc2n1C(C(=O)N[C@H]1CC[C@H](CC(=O)O)CC1)C1CCCCC1` (stereo partly drawn) [Example 11, (trans-4-{2-Cyclohexyl-2-[5-fluoro-2-((R)-methoxy-phenyl-methyl)-benzoimidazol-1-yl]-acetylamino}-cyclohexyl)-acetic acid] was run?
Answer: Its IC50 is 21000 nM.

Question: With `CO[C@H](c1ccccc1)c1nc2cc(F)ccc2n1C(C(=O)N[C@H]1CC[C@H](C(=O)O)CC1)C1CCCCC1` (stereo partly drawn) [Example 12, trans-4-{2-Cyclohexyl-2-[5-fluoro-2-((R)-methoxy-phenyl-methyl)-benzoimidazol-1-yl]-acetylamino}-cyclohexanecarboxylic acid] as the compound, how does the IC50 read?
Answer: Its IC50 is 6800 nM.
